For experiment [1], the target named is Collagenase-III. Kind of experiment: MMP enzymatic assay, hydrolysis of MCA-Pro-Leu-Gly-Leu-DPA-Ala-Arg-NH2, Collagenase-III. Particulars: 37° C., pH 7.5, 2.5% DMSO. The format is biochemical. How it is done:
The propeptide and catalytic domain portion of human collagenase-3 was expressed in E. Coli as an N-terminal fusion protein with ubiquitin. After purification, the catalytic domain was released by treatment with 1 mM APMA for 1 hour at 37° C., and then purified by zinc chelate chromatography.
Rat collagenase-3 was purified in active form from the culture media of uterine smooth muscle cells as described in Roswit, W. T. et al., Arch. Biochem. Biophys., 225, 285-295 (1983).
The matrix metalloprotease inhibitory activity of compounds of this invention in vitro was determined based on the hydrolysis of MCA-Pro-Leu-Gly-Leu-DPA-Ala-Arg-NH2 (Bachem, Inc.) at 37° C. as described in Knight, C. G., et al., FEBS Lett., 296, 263-266 (1992).
The matrix metalloprotease enzyme was diluted with assay buffer (50 mM Tricine pH 7.5, 200 mM NaCl, 10 mM CaCl2, and 0.005% Brij-35) containing 10 μmole of above substrate dissolved in DMSO. Compounds of the invention dissolved in DMSO or only DMSO (control samples) were added such that the final DMSO concentration in all assays was 2.5%. The fluorescence changes were monitored with a Perkin-Elmer LS-50B flourimeter using an excitation wavelength of 328 nm and an emission wavelength of 393 nm.

In experiment [2] the test system is collagen matrix of bovine nasal cartilage plugs. Put plainly: Cartilage plug degradation in vivo (cartilage plug implant assay). Particulars: female Lewis rats, implanted bovine nasal cartilage plugs, hydroxyproline content vs vehicle, 8 or 9 days.
Experiment [3] has as its system TNF-α release from Human Monomac 6 cells. Put plainly: Inhibition of TNF release in vitro, Monomac 6 cells, LPS/PMA. It counts as cell-based. Particulars: 2 h; for inhibition at 10 µM: MONO-MAC-6, 10 μM, read-out: TNF-α % inhibition, Conc. 10 μM. How it is done: The activity of compounds of this invention in inhibiting the TNF release was determined, using the a minor modification of the method described in Pradines-Figueres, A. and Raetz, C. R. H., J. Biol. Chem., 267 (32), 23261, (1992).
Human Monomac 6 cells (Ziegler-Heitbrock, H. W. L., et al., Int. J. Cancer, 41, 456, (1988)) were cultured at 37° C. in RPMI 1640 medium containing 10% fetal calf serum to a density of 1×10^5 cells/ml. 0.23 ml of these cells were placed in each well of a tissue culture plate and the cells were incubated for 15 min. The test compounds were dissolved in above mentioned medium and added and the incubation was continued for an additional 15 min. 10 μl of an lipopolysaccharide/phorbol-12-myristate-13-acetate (LPS/PMA) mixture was added such that the final concentration of lipopolysaccharide was 10 ng/ml and the final concentration of phorbol-12-myristate-13-acetate was 30 ng/ml. The cells were incubated for 2 h after which the plate was centrifuged and the medium was removed and analyzed for TNF content. The analysis was performed using a TNF Quantikine® Inmunoassay (R & D Systems, Minneapolis, Minn. 55413) by following the manufacturer's protocol.
The TNF-α inhibitory activity of test materials, i.e., the measure of the TNF-α content in the test group relative to the vehicle treated group (control group) was: […]

In experiment [4] the test system is collagen matrix of cartilage explants. Put plainly: Degradation of cartilage plug in vitro (hydroxyproline release). The format is cell-based. The note with it: bovine knee cartilage explants, IL-1-α 20 ng/ml, compounds at 10 to 300 nm, 21 days, hydroxyproline content vs control. As for the experimental part:
The ability of the compounds of this invention to inhibit the degradation of the collagen matrix (as judged by release of hydroxyproline) was determined by the cartilage plug degradation assay in vitro by following a slight modification of the method described in Spirito, S., Doughty, E., et al., "Metalloproteinase inhibitors halt collagen breakdown in IL-1 induced bovine nasal cartilage cultures" Inflamm. Res., 44, Supp. 2: S131-S132, (1995).
Cartilage explants prepared from freshly sacrificed bovine knee joints were added to the culture medium (Dubelco's modified eagle medium, Gibco #21063-001, Gibco BRL Products, Gaithersburg, Md.), without phenol red, but with HEPES, and L-glutamine and fungizone 2.5 μglml, gentamicin 50 μg/ml, penicillin 100 U/ml, and streptomycin 100 μg/ml). The cultures were stimulated with IL-1-α at a final concentration of 20 ng/ml. Compounds of Formula (I), were added at concentrations between 10 and 300 nm in DMSO. The control samples contained only IL-1-α. The cultures were incubated at 37° C. in an atmosphere of air with 6% CO2 for 21 days during which time the medium was changed twice/week. The cartilage plugs were removed, hydrolyzed and the hydroxyproline content was determined. The MMP inhibitory activity of test materials is the measure of the hydroxyproline content in the test group relative to the vehicle treated group (control group).

Experiment [5] deals with T1, Collagenase-I (Homo sapiens, UniProt P03956).
T1 construct: the collagenase-1 catalytic domain was released by treatment with 1 mM of aninophenylmercuric acetate; ubiquitin (cleaved yes); made in house; host or cells: E. coli
T1 sequence (P03956 100-269 limits assumed): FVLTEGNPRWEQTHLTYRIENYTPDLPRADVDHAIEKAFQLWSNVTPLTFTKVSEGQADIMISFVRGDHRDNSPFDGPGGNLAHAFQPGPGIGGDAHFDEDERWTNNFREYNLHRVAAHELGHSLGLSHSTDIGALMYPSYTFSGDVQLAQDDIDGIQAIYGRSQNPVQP
Kind of experiment: MMP enzymatic assay, hydrolysis of MCA-Pro-Leu-Gly-Leu-DPA-Ala-Arg-NH2, Collagenase-I. It counts as biochemical.

The test system of experiment [6] is TNF-α. Kind of experiment: Inhibition of LPS induced TNF-α production in mice in vivo. The note with it: s.c. compound, LPS 50 μg/mouse i.p. 1 h later, blood after 1.5 h. As for the experimental part:
The activity of compounds of this invention in inhibiting the TNF-α release was determined, using a minor modification of the methods described in Zanetti, G.; Heumann, D., et. al., "Cytokine production after intravenous or peritoneal Gram-negative bacterial challenge in mice" J. Immunol., 148, 1890, (1992) and Sekut, L., Menius, J. A., et. al., "Evaluation if the significance of elevated levels of systemic and localized tumor necrosis factor in different animal models of inflammation" J. Lab. Clin. Med., 124, 813, (1994).
Female Balbic mice were anesthetized and injected subcutaneously with the test compounds dissolved in CMC vehicle or hydroxypropylmethyl cellulose based vehicle. Control animals received only the vehicle. After 1 h, LPS (50 μg/mouse, Sigma #13129, Sigma Chemical Co., St. Louis, Mo.) was injected intraperitoneally. After 1.5 h, blood was collected from the retro-rbital plexus region of the animals in a miicrotainer serum separator tube (Becton Dickinson, Cat. No. #5960, Becton Dickinson & Co., Franklin Lakes, N.J.). The sera was separated and the amount of TNF-α was determined using the EM-TNFA® kit (Endogen, Woburn, Mass.) by following the manufacturer's protocol.

Where [7] appears, read: 37° C., pH 7.5, 2.5% DMSO; read-out: Collagenase-I IC50.

Where two headings read alike, the source gives them in different places.

One may read the IC50 as the concentration at which inhibition is half-maximal. Usually inhibition stands for the percentage by which the read-out fell short of the control.

`CC(C)[C@@H](NS(=O)(=O)N1CCN(c2ccc(Cl)cn2)CC1)C(=O)NO` [compound 50, N-hydroxy-2-(R)-{[4-(5-chloropyridin-2-yl)piperazine-1-sulfonyl]amino}-3-methylbutyramide] registered an IC50 in experiment [1] of 1.3 nM. Further, the “% protection” value in experiment [2] is 70%; in experiment [4], 71%. For the same compound, the inhibition at 10 µM in experiment [3] was less than 15%.

The compound `CC(C)[C@@H](NS(=O)(=O)N1CCN(c2ccc(Cl)cc2)CC1)C(=O)NO` [compound 51, N-hydroxy-2-(R)-{[4-(4-chlorophenyl)piperazine-1-sulfonyl]amino}-3-methylbutyramide] showed a 50% inhibitory concentration (IC50) in experiment [1] of 2.6 nM. Further, the “% protection” value in experiment [2] was found to be 45%; in experiment [4], 35%.

For the compound `CC(C)[C@@H](NS(=O)(=O)N1CCC(Oc2ccc(Cl)cc2)CC1)C(=O)NO` [compound 59, N-hydroxy-2-(R)-{[4-(4-chlorophenoxy)piperidine-1-sulfonyl]amino}-3-methylbutyramide], the half-inhibitory concentration (IC50) in experiment [1] was determined as 0.18 nM. The “% protection” value is on record as 58% in experiment [2] and 54% in experiment [4].

In experiment [1], `CC(C)[C@@H](NS(=O)(=O)N1CCN(c2ccc(OCc3ccccc3)cc2)CC1)C(=O)NO` [compound 74, N-hydroxy-2-(R)-{[4-(4-benzyloxyphenyl)piperazine-1-sulfonyl]amino}-3-methylbutyramide] gave a concentration for half-maximal inhibition (IC50) of 0.73 nM. In addition, in experiment [2], the “% protection” value turned out to be 46%.

Consider `CC(C)[C@@H](NS(=O)(=O)N1CCC(Oc2ccc(Cl)cn2)CC1)C(=O)NO` [compound 100, N-hydroxy-2-(R)-{[4-(5-chloropyridin-2-yloxy)piperidine-1-sulfonyl]amino}-3-methybutyramide], for which the “% protection” value in experiment [2] was 40%; in experiment [4] it was 68%.

As to `O=C(NO)[C@H](CSc1ccccc1)NS(=O)(=O)N1CCN(c2ccc(Cl)cn2)CC1` [compound 106, N-hydroxy-2-(R)-{[4-(5-chloropyridin-2-yl)piperazine-1-sulfonyl]amino}-3-(phenylthio)propionamide], in experiment [3], the inhibition at 10 µM came out at 41%. For the same compound, the IC50 in experiment [5] (setting [7]) was 0.223 µM.

Take `CC(C)[C@@H](NS(=O)(=O)N1CCC(Oc2ccc(F)cc2)CC1)C(=O)NO` [compound 179, N-hydroxy-2-(R)-{[4-(4-fluorophenoxy)piperidine-1-sulfonyl]amino}-3-methylbutyramide]: the IC50 in experiment [1] was 0.073 nM. For the same compound, the “% protection” value in experiment [2] amounted to 63%. Also, the inhibition at 10 µM in experiment [3] was less than 15%.

For the compound `O=C(NO)[C@H]1CCCCN1S(=O)(=O)N1CCC(c2c[nH]c3c(F)c(F)c(F)c(F)c23)CC1` [compound 299, N-hydroxy-1-[4-(4,5,6,7-tetrafluoroindol-3-yl)piperdine-1-sulfonyl]piperidine-2-(R)-carboxamide], the values for the IC50 in experiment [1] and in experiment [5] (setting [7]) were 410 nM and greater than 50 µM, respectively. For the same compound, the TNF-α % inhibition in experiment [6] is 52%. Further, the inhibition at 2 µM in experiment [3] (MONO-MAC-6, 2 μM, read-out: TNF-α % inhibition, Conc. 2 μM) came to 90%.

In the case of `CC(C)[C@@H](NS(=O)(=O)N1CCN(c2ccc(OCc3ccncc3)cc2)CC1)C(=O)O` [compound 413, 2-(R)-{[4-(pyridin-4-ylmethyloxyphenyl)piperazine-1-sulfonyl]amino}-3-methylbutyric acid], in experiment [5] (read-out: Collagenase-I IC50; 37° C., pH 7.5, 2.5% DMSO), the IC50 amounted to 9.3 µM.

The values above are taken from patent publication US6130220A, “Sulfamide-metalloprotease inhibitors” (Syntex (USA) Inc., priority 1999, dated 2000).
